According to patent US10947252B2, “Inhibitors of KEAP1-Nrf2 protein-protein interaction” (Janssen Pharmaceutica NV, priority 2018, dated 2021):

Legend:
[1] = tested on: Glo-Response ARE-luc2P HEK293 cell line; assay: ARE luciferase reporter cell-based assay; details: Homo sapiens, HEK293, 24 h, average of results obtained;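 also: luciferase signal tracks Nrf2 activation of the ARE once compounds disrupt KEAP1-Nrf2 binding, read with One-Glo reagent, DMSO serving as low control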
[2] = molecular target: Kelch domain of human KEAP1 (321-624 aa) (Homo sapiens (Human), UniProt Q14145); assay: KEAP1 KELCH ThermoFluor binding assay; details: KEAP Kelch […], 1,8-ANS, pH 7.0, average of results obtained, read-out: Tf Kd;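 also: Ligand-induced melting temperature shift of E. coli-expressed KEAP1 Kelch protein, Kd estimated from concentration-response curves of ΔTm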
Chain of Kelch domain of human KEAP1 (321-624 aa) (Q14145 321-624): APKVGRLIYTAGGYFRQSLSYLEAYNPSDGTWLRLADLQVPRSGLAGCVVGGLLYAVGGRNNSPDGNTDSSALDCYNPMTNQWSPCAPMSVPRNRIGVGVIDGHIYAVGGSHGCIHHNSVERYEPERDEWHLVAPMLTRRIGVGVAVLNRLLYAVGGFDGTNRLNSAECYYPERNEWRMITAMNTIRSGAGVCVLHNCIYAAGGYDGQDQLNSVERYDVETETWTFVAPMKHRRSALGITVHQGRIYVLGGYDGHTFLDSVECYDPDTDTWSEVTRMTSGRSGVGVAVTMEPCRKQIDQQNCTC

| Compound | Kd [2] [nM] | EC50 [1] [nM] |
| --- | --- | --- |
| Cc1cnc2c(c1)S(=O)(=O)N(Cc1nc([C@H](c3ccn4c(C(F)F)nnc4c3C)C(C)(C)C(=O)O)ccc1C)CC1(COC1)O2 (single isomer, unassigned) [Example 626, (*R)-3-(3-(Difluoromethyl)-8-methyl-[1,2,4]triazolo[4,3-a]pyridin-7-yl)-2,2-dimethyl-3-(5-methyl-6-((8′-methyl-1′,1′-dioxidospiro[oxetane-3,4′-pyrido[2,3-b][1,4,5]oxathiazepin]-2′(3′H)-yl)methyl)pyridin-2-yl)propanoic Acid] | 2980 | 229 |
| Cc1cnc2c(c1)S(=O)(=O)N(Cc1nc([C@H](c3ccn4c(C(F)F)nnc4c3C)C(C)(C)C(=O)O)ccc1C)CC1(CC1)O2 (single isomer, unassigned) [Example 335, (*R)-3-(3-(Difluoromethyl)-8-methyl-[1,2,4]triazolo[4,3-a]pyridin-7-yl)-2,2-dimethyl-3-(5-methyl-6-((8′-methyl-1′,1′-dioxidospiro[cyclopropane-1,4′-pyrido[2,3-b][1,4,5]oxathiazepin]-2′(3′H)-yl)methyl)pyridin-2-yl)propanoic Acid] | 2440 | 4620 |
| Cc1ccc([C@H](CC(=O)O)c2ccc3c(nnn3CC3CC3)c2C(F)F)cc1CN1CC2CCCN2c2ncccc2S1(=O)=O (stereo in doubt) [Example 66, (*S)-3-(1-(Cyclopropylmethyl)-4-(difluoromethyl-1H-benzo[d][1,2,3]triazol-5-yl)-3-(3-((R-5,5-dioxido-7a,8,9,10-tetrahydropyridi[2,3-f]pyrrolo[2,1-d][1,2,5]thiadiazepin-6(7H)-yl)methyl)-4-methylphenyl)propanoic Acid] | 1 | 260 |
| Cc1ccc([C@H](c2ccn3c(C(F)F)nnc3c2C)C(C)(C)C(=O)O)nc1CN1CC2(CCOCC2)Oc2nc(OCCN3CCCC3)c(C)cc2S1(=O)=O (single isomer, unassigned) [Example 643, (*R)-3-(3-(Difluoromethyl)-8-methyl-[1,2,4]triazolo[4,3-a]pyridin-7-yl)-2,2-dimethyl-3-(5-methyl-6-((8′-methyl-1′,1′-dioxido-7′-(2-(pyrrolidin-1-yl)ethoxy)-2,3,5,6-tetrahydrospiro[pyran-4,4′-pyrido[2,3-b][1,4,5]oxathiazepin]-2′(3′H)-yl)methyl)pyridin-2-yl)propanoic Acid] | 2420 | 9780 |
| Cc1cnc2c(c1)S(=O)(=O)N(Cc1cc([C@H](c3ccc4c(nnn4C4CC4)c3C)C(C)(C)C(=O)O)cnc1C)CC1(CC1)O2 (single isomer, unassigned) [Example 396, (*R)-3-(1-Cyclopropyl-4-methyl-1H-benzo[d][1,2,3]triazol-5-yl)-2,2-dimethyl-3-(6-methyl-5-((8′-methyl-1′,1′-dioxidospiro[cyclopropane-1,4′-pyrido[2,3-b][1,4,5]oxathiazepin]-2′(3′H)-yl)methyl)pyridin-3-yl)propanoic Acid] | 21800 | 4900 |
| Cc1cc2cc([C@H](CC(=O)O)c3ccc(C)c(CN4C[C@H]5CCCN5c5ncccc5S4(=O)=O)c3)n(C)c2nn1 (single isomer, unassigned) [Example 436, (*R)-3-(3,7-Dimethyl-7H-pyrrolo[2,3-c]pyridazin-6-yl)-3-(3-(((R)-5,5-dioxido-7a,8,9,10-tetrahydropyrido[2,3-f]pyrrolo[2,1-d][1,2,5]thiadiazepin-6(7H)-yl)methyl)-4-methylphenyl)propanoic Acid] | < 1 | 2230 |
| CCn1nnc2c(C)c([C@H](CC(=O)O)c3ccc(C)c(CN4C[C@@H]5CCCN5c5ncccc5S4(=O)=O)c3)ccc21 (single isomer, unassigned) [Example 157, (*R)-3-(3-(((S)-5,5-Dioxido-7a,8,9,10-tetrahydropyrido[2,3-f]pyrrolo[2,1-d][1,2,5]thiadiazepin-6(7H)-yl)methyl)-4-methylphenyl)-3-(1-ethyl-4-methyl-1H-benzo[d][1,2,3]triazol-5-yl)propanoic Acid] | ~3.2 | 62 |
| Cc1ccc([C@H](CC(=O)O)c2ccn3c(C(F)(F)F)nnc3c2C)cc1CN1CC2(CC2)Oc2ncc(Cl)cc2S1(=O)=O (single isomer, unassigned) [Example 195, (*S)-3-(3-((8′-Chloro-1′,1′-dioxidospiro[cyclopropane-1,4′-pyrido[2,3-b][1,4,5]oxathiazepin]-2′(3′H)-yl)methyl)-4-methylphenyl)-3-(8-methyl-3-(trifluoromethyl)-[1,2,4]triazolo[4,3-a]pyridin-7-yl)propanoic Acid] | < 1 | 5.7 |
| CC[C@@H]1CN(Cc2cc([C@@H](CC(=O)O)c3ccn4c(C(F)F)nnc4c3C)ccc2C)S(=O)(=O)c2cccnc2O1 (single isomer, unassigned) [Example 465, (*R)-3-(3-(Difluoromethyl)-8-methyl-[1,2,4]triazolo[4,3-a]pyridin-7-yl)-3-(3-(((R)-4-ethyl-1,1-dioxido-3,4-dihydro-2H-pyrido[2,3-b][1,4,5]oxathiazepin-2-yl)methyl)-4-methylphenyl)propanoic Acid] | < 1 | 154 |

The next lines start with results.

| Kd [2] [nM] | Compound | EC50 [1] [nM] |
| --- | --- | --- |
| < 1 | Cc1ccc([C@@H](c2ccn3c(C(F)F)nnc3c2C)C(C)(C)C(=O)O)cc1CN1CC2(CCOCC2)Oc2nc(OCCN3CCCC3)c(C)cc2S1(=O)=O (single isomer, unassigned) [Example 377, (*S)-3-(3-(Difluoromethyl)-8-methyl-[1,2,4]triazolo[4,3-a]pyridine-7-yl)-2,2-dimethyl-3-(4-methyl-3-((8′-methyl-1′,1′-dioxido-7′-(2-(pyrrolidin-1-yl)ethoxy)-2,3,5,6-tetrahydrospiro[pyran-4,4′-pyrido[2,3-b][1,4,5]oxathiazepin]-2′(3′H)-yl)methyl)phenyl)propanoic Acid] | 44.9 |
| < 1 | Cc1ccc([C@H](CC(=O)O)c2ccn3c(C(F)F)nnc3c2C)cc1CN1CC2(COC2)Oc2ncccc2S1(=O)=O (single isomer, unassigned) [Example 470, (*S)-3-(3-(Difluoromethyl)-8-methyl-[1,2,4]triazolo[4,3-a]pyridin-7-yl)-3-(3-((1′,1′-dioxidospiro[oxetane-3,4′-pyrido[2,3-b][1,4,5]oxathiazepin]-2′(3′H)-yl)methyl)-4-methylphenyl)propanoic Acid] | 472 |
| < 1 | Cc1cnc2c(c1)S(=O)(=O)N(Cc1nc([C@H](CC(=O)O)c3ccn4c(C(F)(F)F)nnc4c3C)ccc1C)C[C@@H]1CCCCN21 (single isomer, unassigned) [Example 489, (*R)-3-(8-Methyl-3-(trifluoromethyl)-[1,2,4]triazolo[4,3-a]pyridin-7-yl)-3-(5-methyl-6-(((*S)-3-methyl-5,5-dioxido-7,7a,8,9,10,11-hexahydro-6H-dipyrido[2,1-d:2′,3′-f][1,2,5]thiadiazepin-6-yl)methyl)pyridin-2-yl)propanoic Acid] | 29.8 |
| < 1 | Cc1ccc(C(c2ccn3c(C(F)(F)F)nnc3c2C)C(C)(C)C(=O)O)cc1CN1CC2(CCOCC2)Oc2nc(OCCN3CCOCC3)ccc2S1(=O)=O (racemic) [Example 46] | 71.9 |
| < 1 | CCc1nnc2c(C)c(C(CC(=O)O)c3ccc(C)c(CN4C[C@H]5CCCN5c5ncccc5S4(=O)=O)c3)ccn12 (stereo partly drawn) [Example 281, 3-(3-(((R)-5,5-Dioxido-7a,8,9,10-tetrahydropyrido[2,3-f]pyrrolo[2,1-d][1,2,5]thiadiazepin-6(7H)-yl)methyl)-4-methylphenyl)-3-(3-ethyl-8-methyl-[1,2,4]triazolo[4,3-a]pyridin-7-yl)propanoic Acid] | 480 |
| < 1 | Cc1ccc([C@H](c2ccn3c(C(F)(F)F)nnc3c2C)C(C)(C)C(=O)O)cc1CN1C[C@@H]2CCCCN2c2ncc(C#N)cc2S1(=O)=O (single isomer, unassigned) [Example 425, (*R)-3-(3-(((*S)-3-cyano-5,5-dioxido-7,7a,8,9,10,11-hexahydro-6H-dipyrido[2,1-d:2′,3′-f][1,2,5]thiadiazepin-6-yl)methyl)-4-methylphenyl)-2,2-dimethyl-3-(8-methyl-3-(trifluoromethyl)-[1,2,4]triazolo[4,3-a]pyridin-7-yl)propanoic Acid] | 96.9 |
| < 1 | CCn1nnc2c(C)c([C@H](CC(=O)O)c3ccc(C)c(CN4CC5(CCOCC5)Oc5ccc(F)cc5S4(=O)=O)n3)ccc21 (single isomer, unassigned) [Example 418, (*S)-3-(1-ethyl-4-methyl-1H-benzo[d][1,2,3]triazol-5-yl)-3-(6-((8-fluoro-1,1-dioxido-2′,3′,5′,6′-tetrahydrospiro[benzo[b][1,4,5]oxathiazepine-4,4′-pyran]-2(3H)-yl)methyl)-5-methylpyridin-2-yl)propanoic Acid] | 0.96 |
| < 1 | Cc1cnc2c(c1)S(=O)(=O)N(Cc1cc([C@@H](c3ccn4c(C(F)(F)F)nnc4c3C)C(C)(C)C(=O)O)ncc1C)CC1(CC1)O2 (single isomer, unassigned) [Example 588, (*S)-2,2-Dimethyl-3-(8-methyl-3-(trifluoromethyl)-[1,2,4]triazolo[4,3-a]pyridin-7-yl)-3-(5-methyl-4-((8′-methyl-1′,1′-dioxidospiro[cyclopropane-1,4′-pyrido[2,3-b][1,4,5]oxathiazepin]-2′(3′H)-yl)methyl)pyridin-2-yl)propanoic Acid] | 7.64 |
| < 1 | Cc1ccc([C@H](CC(=O)O)c2ccn3c(C(F)F)nnc3c2C)cc1CN1C[C@@H]2CCCN2c2ncc(C#N)cc2S1(=O)=O (single isomer, unassigned) [Example 543, (*S)-3-(3-(((S)-3-Cyano-5,5-dioxido-7a,8,9,10-tetrahydropyrido[2,3-f]pyrrolo[2,1-d][1,2,5]thiadiazepin-6(7H)-yl)methyl)-4-methylphenyl)-3-(3-(difluoromethyl)-8-methyl-[1,2,4]triazolo[4,3-a]pyridin-7-yl)propanoic Acid] | 42.9 |
